Assay results as given in US20060281763A1, “Carboxamide inhibitors of TGFbeta” (priority 2005, published 2006).

Each compound was assayed against T1, TGFβ R1 (Homo sapiens, UniProt P36897) (assay: TGFβ R1 autophosphorylation protocol (33P-ATP, phosphocellulose filter plate)). Conditions: 10 uM ATP, 170 nM TGFβ R1, 20 minutes at room temperature, read-out: IC50 for Kinase Inhibition.
T1 sequence (P36897 34-503): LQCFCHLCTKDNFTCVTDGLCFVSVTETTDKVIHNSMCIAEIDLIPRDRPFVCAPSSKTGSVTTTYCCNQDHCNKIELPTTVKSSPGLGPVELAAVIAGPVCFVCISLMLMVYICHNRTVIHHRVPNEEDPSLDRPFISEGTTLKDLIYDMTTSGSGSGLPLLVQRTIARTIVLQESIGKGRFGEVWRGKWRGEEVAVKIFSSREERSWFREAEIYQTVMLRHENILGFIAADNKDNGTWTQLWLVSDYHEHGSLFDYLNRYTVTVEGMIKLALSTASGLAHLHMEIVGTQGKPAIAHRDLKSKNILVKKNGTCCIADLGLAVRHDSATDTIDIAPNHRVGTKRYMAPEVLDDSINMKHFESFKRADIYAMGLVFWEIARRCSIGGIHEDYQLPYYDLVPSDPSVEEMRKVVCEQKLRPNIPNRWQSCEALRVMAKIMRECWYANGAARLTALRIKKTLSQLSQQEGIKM
Type: biochemical
Experimental: The compounds of the invention were tested for their ability to inhibit TGFβ by a TGFβ R^1 autophosphorylation protocol. This was conducted as follows: Compound dilutions and reagents were prepared fresh daily. Compounds were diluted from DMSO stock solutions to 2 times the desired assay concentration, keeping final DMSO concentration in the assay less than or equal to 1%. TGFβ R1 was diluted to 4 times the desired assay concentration in buffer+DTT. ATP was diluted into 4× reaction buffer, and gamma-^33P-ATP was added at 60 uCi/mL.
The assay was performed by adding 10 ul of the enzyme to 20 ul of the compound solution. The reaction was initiated by the addition of 10 ul of ATP mix. Final assay conditions included 10 uM ATP, 170 nM TGFβ R1, and […] in 20 mM MOPS, pH7. The reactions were incubated at room temperature for 20 minutes. The reactions were stopped by transferring 23 ul of reaction mixture onto a phosphocellulose 96-well filter plate, which had been pre-wetted with 15 ul of 0.25M H3PO4 per well. After 5 minutes, the wells were washed 4× with 75 mM H3PO4 and once with 95% ethanol. The plate was dried, scintillation cocktail was added to each well, and the wells were counted in a Packard TopCount microplate scintillation counter.

Going from `COc1cnc(-c2cc(Cl)ccc2F)nc1Nc1ccncc1C(=O)NCCCNC(=O)OC(C)(C)C` [Compound 33, [3-({4-[2-(5-Chloro-2-fluoro-phenyl)-5-methoxy-pyrmidin-4-ylamino]-pyridine-3-carbonyl}-amino)-propyl]-carbamic acid tert-butyl ester] to `COc1cnc(-c2cc(Cl)ccc2F)nc1Nc1ccncc1C(=O)NCCCNC(=O)C(C)C` [Compound 95, 4-[2-(5-Chloro-2-fluoro-phenyl)-5-methoxy-pyrimidin-4-ylamino]-N-(3-isobutylylamino-propyl)-nicotinamide], the IC50 falls from 1130 nM to 170 nM (6.6-fold).

`CONC(=O)c1cnccc1Nc1nc(-c2cc(Cl)ccc2F)ncc1OC` [Compound 120, 4-[2-(5-Chloro-2-fluoro-phenyl)-5-methoxy-pyrimidin-4-ylamino]-N-methoxy-nicotinamide] and `COc1cnc(-c2cc(Cl)ccc2F)nc1Nc1ccncc1C(=O)NCC1CN(C(=O)OC(C)(C)C)C1` [Compound 105] are within 1.5-fold of each other in IC50: 190 nM for the first, 240 nM for the second.

Going from `COc1cnc(-c2cc(Cl)ccc2F)nc1Nc1ccncc1C(=O)NCCNCC(F)(F)C(F)(F)F` [Compound 102, 4-[2-(5-Chloro-2-fluoro-phenyl)-5-methoxy-pyrimidin-4-ylamino]-N-[2-(2,2,3,3,3-pentafluoro-propylamino)-ethyl]-nicotinamide] to `COc1cnc(-c2cc(Cl)ccc2F)nc1Nc1ccncc1C(=O)NCCNc1ccccc1` [Compound 71, 4-[2-(5-Chloro-2-fluoro-phenyl)-5-methoxy-pyrimidin-4-ylamino]-N-(2-phenylamino-ethyl)-nicotinamide], the IC50 rises from 70 nM to 760 nM (11-fold).

In the case of `COc1cnc(-c2cc(Cl)ccc2F)nc1Nc1ccncc1C(=O)NCCCN1CC[C@@H](F)C1` [Compound 155, 4-[2-(5-Chloro-2-fluoro-phenyl)-5-methoxy-pyrimidin-4-ylamino]-N-[3-(3-fluoro-pyrrolidin-1-yl)-propyl]-nicotinamide], the IC50 is reported as 8 nM.

Same assay, conditions: 10 uM ATP, 170 nM TGFβ R1, room temperature 20 minutes, read-out: IC50 for Kinase Inhibition

Compared with `CC(C)c1cnc(-c2cc(Cl)ccc2F)nc1Nc1ccncc1C(=O)NC[C@H](C)OP(=O)(O)O` [Compound 234, Phosphoric acid mono-[2-{[4-[2-(5-chloro-2-fluoro-phenyl}-5-isopropyl-pyrimidin-4-ylamino]-pyridine-3-carbony}-amino)-1-methyl-ethyl] ester], `CC(C)c1cnc(-c2cc(Cl)ccc2F)nc1Nc1ccncc1C(=O)NC1CC1CO` (stereo not shown) [Compound 179, 4-[2-(5-Chloro-2-fluoro-phenyl)-5-isopropyl-pyrimidin-4-ylamino]-N-(2-hydroxymethyl-cyclopropyl)-nicotinamide] is 36-fold lower in IC50: 178 nM for the first, 5 nM for the second.

Going from `CC(C)c1cnc(-c2cc(Cl)ccc2F)nc1Nc1ccncc1C(=O)NC1CC1CO` (stereo not shown) [Compound 172, 4-[2-(5-Chloro-2-fluoro-phenyl)-5-isopropyl-pyrimidin-4-ylamino]-N-(2-hydroxymethyl-cyclopropyl)-nicotinamide] to `CC(C)c1cnc(-c2cc(Cl)ccc2F)nc1Nc1ccncc1C(=O)N1CCN[C@H](C)C1` [Compound 228, {4-[2-(5-Chloro-2-fluoro-phenyl)-5-isopropyl-pyrimidin-4-ylamino]-pyridin-3-yl}-(3-methyl-piperazin-1-yl)-methanone], the IC50 rises from 5 nM to 2780 nM (560-fold).

Going from `CC(C)c1cnc(-c2cc(Cl)ccc2F)nc1Nc1ccncc1C(=O)N1CCNCC1` [Compound 232, {4-[2-(5-Chloro-2-fluoro-phenyl)-5-isopropyl-pyrimidin-4-ylamino]-pyridin-3-yl}-piperazin-1-yl-methanone] to `CC(C)c1cnc(-c2cc(Cl)ccc2F)nc1Nc1ccncc1C(=O)NCCCN1CCCC[C@H]1C(=O)N1CCCC1` [Compound 183, 4-[2-(5-Chloro-2-fluoro-phenyl)-5-isopropyl-pyrimidin-4-ylamino]-N-{3-[2-(pyrrolidine-1-carbonyl)-piperidin-1-yl]-propyl}-nicotinamide], the IC50 falls from 990 nM to 21 nM (47-fold).
